Target: T1, human orexin type 2 receptor (Homo sapiens, UniProt O43614)
T1 construct: expressed in transfected cells
T1 sequence (O43614 1-444): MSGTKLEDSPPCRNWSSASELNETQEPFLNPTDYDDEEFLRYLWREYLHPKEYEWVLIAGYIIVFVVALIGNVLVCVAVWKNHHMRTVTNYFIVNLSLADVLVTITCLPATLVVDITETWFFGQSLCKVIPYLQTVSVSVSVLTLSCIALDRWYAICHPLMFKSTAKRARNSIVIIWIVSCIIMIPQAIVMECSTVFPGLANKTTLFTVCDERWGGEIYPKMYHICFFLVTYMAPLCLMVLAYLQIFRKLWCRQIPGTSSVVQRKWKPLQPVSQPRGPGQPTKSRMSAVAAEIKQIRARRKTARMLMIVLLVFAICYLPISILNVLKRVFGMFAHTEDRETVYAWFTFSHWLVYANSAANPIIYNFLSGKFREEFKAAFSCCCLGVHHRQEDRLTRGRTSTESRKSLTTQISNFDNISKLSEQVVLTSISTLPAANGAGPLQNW
Assay: Measurement of orexin type 2 receptor agonist activity (calcium fluorescence, CHO cells forcibly expressing human OX2 receptor)
Type: cell-based
Conditions: compound at 3 μM, DMSO = 0%, orexin A (human) 10 nM = 100%
Excerpt: To obtain a cell clone stably expressing human orexin type 2 receptor, human orexin type 2 receptor cDNA was inserted into pcDNA3.1(+) plasmid vector (Invitrogen), and a plasmid DNA for expression of human orexin type 2 receptor (pcDNA3.1(+)/hOX2R) was cloned. The plasmid DNA was introduced into CHO-K1 cell by an electroporation method, and human orexin type 2 receptor-expressing clonal cells were obtained by limiting dilution method using G418 drug resistance as a selection marker.
CHO cells forcibly expressing human OX2 receptor were seeded in each well of 384 well black transparent bottom plate (BD Falcon) at 10,000 cells/well, and cultured for one day in a 5% CO2 incubator at 37° C. After removal of the medium in the cell plate, assay buffer A containing a calcium indicator (HBSS (Thermo Fisher Scientific), 20 mM HEPES (Thermo Fisher Scientific), 0.1% BSA (Sigma-Aldrich), 2.5 μg/mL Fluo-4 AM (DOJINDO Chemical), 0.08% Pluronic F127 (DOJINDO Chemical), 1.25 mM probenecid (DOJINDO Chemical)) was added thereto at 30 μL/well. The plate was stood for 30 min in a 5% CO2 incubator at 37° C., and further stood at room temperature for 30 min. A test compound prepared by diluting with assay buffer B (HBSS, 20 mM HEPES, 0.1% BSA) was added thereto at 10 μL/well, and the fluorescence value was measured by FDSSμCELL (Hamamatsu Photonics K.K.) every one sec for 1 min, and thereafter every two sec for 1 min 40 sec. The activity (%) of the test compound was calculated assuming that variation in the fluorescence value when DMSO was added instead of the test compound was 0%, and variation in the fluorescence value when orexin A (human) (PEPTIDE INSTITUTE, INC.) was added at the final concentration of 10 nM was 100%.

Row | SMILES | OX2R agonist activity (3 μM, %) [%]
1 | CCS(=O)(=O)NC1CCc2ccc(C)c(=O)n2C1COC1CCC(C(F)(F)F)CC1 (racemic) [Example 38, rac-N-[(3S,4R)-7-methyl-6-oxo-4-({[(1s,4S)-4-(trifluoromethyl)cyclohexyl]oxy}methyl)-1,3,4,6-tetrahydro-2H-quinolizin-3-yl]ethanesulfonamide] | 88
2 | Cc1ccc2n(c1=O)C(COC1CCC(c3ccc(F)cc3)CC1)C(NS(C)(=O)=O)CC2 (racemic) [Example 40, rac-N-[(3S,4R)-4-({[(1s,4S)-4-(4-fluorophenyl)cyclohexyl]oxy}methyl)-7-methyl-6-oxo-1,3,4,6-tetrahydro-2H-quinolizin-3-yl]methanesulfonamide] | 89
3 | Cc1ccc2n(c1=O)C(COC1CCC(c3ccccc3F)CC1)C(NS(=O)(=O)C1CC1)CC2 (racemic) [Example 45, rac-N-[(3S,4R)-4-({[(1s,4S)-4-(2-fluorophenyl)cyclohexyl]oxy}methyl)-7-methyl-6-oxo-1,3,4,6-tetrahydro-2H-quinolizin-3-yl]cyclopropanesulfonamide] | 95
4 | CCC1CCC(OCC2C(NS(C)(=O)=O)CCc3c(C)cc(C)c(=O)n32)CC1 (racemic) [Example 48, rac-N-[(3S,4R)-4-({[(1s,4S)-4-ethylcyclohexyl]oxy}methyl)-7,9-dimethyl-6-oxo-1,3,4,6-tetrahydro-2H-quinolizin-3-yl]methanesulfonamide] | 95
5 | Cc1ccc2n(c1=O)C(COC1CCC(C(F)F)CC1)C(NS(C)(=O)=O)CC2 (racemic) [Example 55, N-[(3SR,4RS)-4-({[4-(difluoromethyl)cyclohexyl]oxy}methyl)-7-methyl-6-oxo-1,3,4,6-tetrahydro-2H-quinolizin-3-yl]methanesulfonamide] | 88
6 | COC(C)C1CCC(OCC2C(NS(C)(=O)=O)CCc3ccc(C)c(=O)n32)CC1 (racemic) [Example 56, N-[(3SR,4RS)-4-({[(1s,4S)-4-(1-methoxyethyl)cyclohexyl]oxy}methyl)-7-methyl-6-oxo-1,3,4,6-tetrahydro-2H-quinolizin-3-yl]methanesulfonamide] | 84
7 | CCC(O)C1CCC(OCC2C(NS(C)(=O)=O)CCc3ccc(C)c(=O)n32)CC1 (racemic) [Example 58, N-[(3SR,4RS)-4-({[4-(1-hydroxypropyl)cyclohexyl]oxy}methyl)-7-methyl-6-oxo-1,3,4,6-tetrahydro-2H-quinolizin-3-yl]methanesulfonamide] | 95
8 | CCOC1CCC(OCC2C(NS(C)(=O)=O)CCc3ccc(C)c(=O)n32)CC1 (racemic) [Example 59, rac-N-[(3S,4R)-4-({[(1s,4S)-4-ethoxycyclohexyl]oxy}methyl)-7-methyl-6-oxo-1,3,4,6-tetrahydro-2H-quinolizin-3-yl]methanesulfonamide] | 93
9 | Cc1ccc2n(c1=O)C(COC1CCC(OC(C)C)CC1)C(NS(C)(=O)=O)CC2 (racemic) [Example 61, rac-N-{(3S,4R)-7-methyl-6-oxo-4-[({(1s,4S)-4-[(propan-2-yl)oxy]cyclohexyl}oxy)methyl]-1,3,4,6-tetrahydro-2H-quinolizin-3-yl)methanesulfonamide] | 103
10 | COC(C)(C)C1CCC(OCC2C(NS(C)(=O)=O)CCc3ccc(C)c(=O)n32)CC1 (racemic) [Example 74, rac-N-[(3S,4R)-4-(([(1s,4S)-4-(2-methoxypropan-2-yl)cyclohexyl]oxy)methyl)-7-methyl-6-oxo-1,3,4,6-tetrahydro-2H-quinolizin-3-yl]methanesulfonamide] | 95
11 | CCCCCC1CCC(OCC2C(NS(=O)(=O)C3CC3)CCc3ccc(C)c(=O)n32)CC1 (racemic) [Example 76, rac-N-[(3S,4R)-7-methyl-6-oxo-4-({[(1r,4S)-4-pentylcyclohexyl]oxy}methyl)-1,3,4,6-tetrahydro-2H-quinolizin-3-yl]cyclopropanesulfonamide] | 93
12 | CCCCC1CCC(OCC2C(NS(C)(=O)=O)CCc3ccc(C)c(=O)n32)CC1 (racemic) [Example 80, rac-N-[(3S,4R)-4-({[(1r,4S)-4-butylcyclohexyl]oxy}methyl)-7-methyl-6-oxo-1,3,4,6-tetrahydro-2H-quinolizin-3-yl]methanesulfonamide] | 99
13 | CCOCC1CCC(OCC2C(NS(C)(=O)=O)CCc3ccc(C)c(=O)n32)CC1 (racemic) [Example 81, rac-N-[(3S,4R)-4-({[(1s,4S)-4-(ethoxymethyl)cyclohexyl]oxy}methyl)-7-methyl-6-oxo-1,3,4,6-tetrahydro-2H-quinolizin-3-yl]methanesulfonamide] | 102
14 | Cc1ccc2n(c1=O)C(COC1CCC(COC3CCCCO3)CC1)C(NS(C)(=O)=O)CC2 (racemic) [Example 82, N-[(3SR,4RS)-7-methyl-4-(([(1s,4S)-4-{[(oxay-2-yl)oxy]methyl}cyclohexyl]oxy}methyl)-6-oxo-1,3,4,6-tetrahydro-2H-quinolizin-3-yl]methanesulfonamide] | 56
15 | COCCC1CCC(OCC2C(NS(C)(=O)=O)CCc3ccc(C)c(=O)n32)CC1 (racemic) [Example 83, rac-N-[(3S,4R)-4-({[(1s,4S)-4-(2-methoxyethyl)cyclohexyl]oxy}methyl)-7-methyl-6-oxo-1,3,4,6-tetrahydro-2H-quinolizin-3-yl]methanesulfonamide] | 91
16 | CCOC(=O)CC1CCC(OCC2C(NS(C)(=O)=O)CCc3ccc(C)c(=O)n32)CC1 (racemic) [Example 84, rac-ethyl [(1S,4s)-4-({(3S,4R)-3-[(methanesulfonyl)amino]-7-methyl-6-oxo-1,3,4,6-tetrahydro-2H-quinolizin-4-yl}methoxy)cyclohexyl]acetate] | 75
17 | Cc1ccc2n(c1=O)C(COC1CCC(CC(C)(C)O)CC1)C(NS(C)(=O)=O)CC2 (racemic) [Example 85, rac-N-[(3S,4R)-4-({[(1s,4S)-4-(2-hydroxy-2-methylpropyl)cyclohexyl]oxy}methyl)-7-methyl-6-oxo-1,3,4,6-tetrahydro-2H-quinolizin-3-yl]methanesulfonamide] | 59
18 | Cc1ccc2n(c1=O)C(COC1CCC(CF)CC1)C(NS(C)(=O)=O)CC2 (racemic) [Example 86, rac-N-[(3S,4R)-4-({[(1s,4S)-4-(fluoromethyl)cyclohexyl]oxy}methyl)-7-methyl-6-oxo-1,3,4,6-tetrahydro-2H-quinolizin-3-yl]methanesulfonamide] | 89
19 | Cc1ccc2n(c1=O)C(COC1CCC(CC3CC3)CC1)C(NS(C)(=O)=O)CC2 (racemic) [Example 87, rac-N-[(3S,4R)-4-({[(1s,4S)-4-(cyclopropylmethyl)cyclohexyl]oxy}methyl)-7-methyl-6-oxo-1,3,4,6-tetrahydro-2H-quinolizin-3-yl]methanesulfonamide] | 89
20 | Cc1ccc2n(c1=O)C(COC1CCC(CC(C)C)CC1)C(NS(C)(=O)=O)CC2 (racemic) [Example 88, rac-N-[(3S,4R)-7-methyl-4-({[(1a,4S)-4-(2-methylpropyl)cyclohexyl]oxy}methyl)-6-oxo-1,3,4,6-tetrahydro-2H-quinolizin-3-yl]methanesulfonamide] | 95
21 | Cc1ccc2n(c1=O)C(COC1CCC(COC(C)C)CC1)C(NS(C)(=O)=O)CC2 (racemic) [Example 92, rac-N-[(3S,4R)-7-methyl-6-oxo-4-({[(1s,4S)-4-([(propan-2-yl)oxy]methyl}cyclohexyl]oxy}methyl)-1,3,4,6-tetrahydro-2H-quinolizin-3-yl]methanesulfonamide] | 90
22 | Cc1ccc2n(c1=O)C(COC1CCC(C3CCC3)CC1)C(NS(C)(=O)=O)CC2 (racemic) [Example 93, rac-N-[(3S,4R)-4-({[(1s,4S)-4-cyclobutylcyclohexyl]oxy}methyl)-7-methyl-6-oxo-1,3,4,6-tetrahydro-2H-quinolizin-3-yl]methanesulfonamide] | 97
